Experimental data from patent publication US8829014B2, “Thiazole and thiophene analogues, and their use in treating autoimmune diseases and cancers” (Board of Supervisors of Louisiana State University and …, priority 2006, dated 2014).

Row | SMILES | melting point [°C]
1 | CCOC(=O)Nc1nc(C)c(-c2nc3ccccc3c(=O)n2-c2cccc(C)c2)s1 | 210 to 211
2 | COC(=O)Nc1nc(C)c(-c2nc3ccccc3c(=O)n2-c2cccc(C)c2)s1 | 232 to 233
3 | Cc1cnc(-c2cc(-c3ccccc3)c(N3CCOCC3)s2)cc1OCC(F)(F)F [Example 41, 4-{5-[5-Methyl-4-(2,2,2-trifluoro-ethoxy)-pyridine-2-yl]-3-phenyl-thiophene-2-yl}-morpholine] | 145 to 147
4 | Cc1nc(NC(=O)c2ccco2)sc1C(=O)c1sc(NC(=O)c2ccco2)nc1C [Example 122, Bis-[2-(2-Furoyl-amino)-4-methyl-thiazole-5-yl]-methanone] | 198 to 199
5 | Cc1ccc(-n2c(-c3sc(Nc4ccccc4)nc3C)nc3ccccc3c2=O)cc1 [Example 191, 2-(4-Methyl-2-phenylamino-thiazol-5-yl)-3-p-tolyl-3H-quinazolin-4-one] | 256 to 257
6 | COc1cccc(-n2c(-c3sc(Nc4ccc(Cl)cc4)nc3C)nc3ccccc3c2=O)c1 [Example 211, 2-[2-(4-Chlorophenylamino)-4-methyl-thiazol-5-yl]-3-(3-methoxyphenyl)-3H-quinazolin-4-one] | 243 to 244
7 | COC(=O)Nc1nc(C)c(-c2nc3ccccc3c(=O)n2-c2ccc(C(C)=O)cc2)s1 [Example 260, (4-Methyl-5-(4-oxo-3-(4-acetyl-phenyl)-3,4-dihydro-quinazolin-2-yl)-thiazol-2-yl)-carbamic acid methyl ester] | 232 to 234
8 | Cc1ccccc1-n1c(-c2cc(-c3ccncc3)c(N3CCOCC3)s2)nc2ccccc2c1=O [Example 283, 2-(5-Morpholin-4-yl-4-pyridin-4-yl-thiophen-2-yl)-3-o-tolyl-3H-quinazolin-4-one] | 208 to 210
9 | Cc1cccc(-n2c(-c3cc(-c4ccccc4)c(N4CCOCC4)s3)nc3ccccc3c2=O)c1 [Example 284, 2-(5-Morpholin-4-yl-4-phenyl-thiophene-2-yl)-3-m-tolyl-3H-quinazolin-4-one] | 194 to 196
10 | Cc1cccc(-n2c(-c3cc(-c4ccc(Cl)cc4)c(N4CCOCC4)s3)nc3ccccc3c2=O)c1 [Example 285, 2-[4-(4-Chloro-phenyl)-5-morpholin-4-yl-thiophen-2-yl]-3-m-tolyl-3H-quinazolin-4-one] | 228 to 230
11 | COc1ccccc1-n1c(-c2cc(-c3ccc(Cl)cc3)c(N3CCOCC3)s2)nc2ccccc2c1=O [Example 295, 2-[4-(4-Chlorophenyl)-5-morpholin-4-yl-thiophene-2-yl]-3-(2-methoxy-phenyl)-3H-quinazolin-4-one] | 216 to 217
12 | COc1cccc(-n2c(-c3cc(-c4ccccc4)c(N4CCOCC4)s3)nc3ccccc3c2=O)c1 [Example 299, 3-(3-Methoxy-phenyl)-2-(5-morpholin-4-yl-4-phenyl-thiophen-2-yl)-3H-quinazolin-4-one] | 269 to 272
13 | COc1ccc(-n2c(-c3cc(-c4ccccc4)c(N4CCOCC4)s3)nc3ccccc3c2=O)cc1 [Example 301, 3-(4-Methoxy-phenyl)-2-(5-morpholin-4-yl-4-phenyl-thiophen-2-yl)-3H-quinazolin-4-one] | 164 to 165
14 | COc1ccc(-n2c(-c3cc(-c4ccc(Cl)cc4)c(N4CCOCC4)s3)nc3ccccc3c2=O)cc1 [Example 302, 2-[4-(4-Chloro-phenyl)-5-morpholin-4-yl-thiophene-2-yl]-3-(4-methoxy-phenyl)-3H-quinazolin-4-one] | 217 to 218
15 | COc1ccc(Nc2nc(NC(=O)Nc3ccc(F)cc3)c(-c3cc(C)c(OCC(F)(F)F)cn3)s2)cc1 [Example 367, 1-(4-Fluoro-phenyl)-3-{2-(4-methoxy-phenylamino)-5-[4-methyl-5-(2,2,2-trifluoro-ethoxy)-pyridin-2-yl]-thiazol-4-yl}-urea] | > 280

Now from value to molecule:

Row | melting point [°C] | SMILES
16 | 220 to 225 | CNc1nc(-c2ccccc2)c(-c2nc3ccccc3c(=O)n2-c2ccccc2C)s1 [Example 173, 2-(2-methylamino-4-phenyl-thiazol-5-yl)-3-o-tolyl-3H-quinazolin-4-one]
17 | 141 to 143 | Cc1ccccc1-n1c(-c2sc(Nc3ccccc3)nc2-c2ccccc2)nc2ccccc2c1=O [Example 174, 3-o-Tolyl-2-(4-phenyl-2-phenylamino-thiazol-5-yl)-3H-quinazolin-4-one]
18 | > 275 | Cc1ccccc1-n1c(-c2sc(NC(=O)c3ccccc3)nc2-c2ccccc2)nc2ccccc2c1=O [Example 175, N-[5-(4-Oxo-3-o-tolyl-3,4-dihydro-quinazolin-2-yl)-4-phenyl-thiazole-2-yl]benzamide]
19 | 261 to 263 | CCOC(=O)Nc1nc(-c2ccccc2)c(-c2nc3ccccc3c(=O)n2-c2cccc(C)c2)s1 [Example 184, [5-(4-Oxo-3-m-tolyl-3,4-dihydro-quinazolin-2-yl)-4-phenyl-thiazol-2-yl]-carbamic acid ethyl ester]
20 | 268 to 269 | COC(=O)Nc1nc(-c2ccccc2)c(-c2nc3ccccc3c(=O)n2-c2cccc(C)c2)s1 [Example 185, [5-(4-Oxo-3-m-tolyl-3,4-dihydro-quinazolin-2-yl)-4-phenyl-thiazol-2-yl]-carbamic acid methyl ester]
21 | 105 to 107 | Cc1cccc(-n2c(-c3sc(Nc4ccccc4)nc3-c3ccccc3)nc3ccccc3c2=O)c1 [Example 187, 3-m-Tolyl-2-(4-phenyl-2-phenylamino-thiazol-5-yl)-3H-quinazolin-4-one]
22 | > 275 | COC(=O)Nc1nc(-c2ccccc2)c(-c2nc3ccccc3c(=O)n2-c2ccc(C)cc2)s1 [Example 194, [5-(4-Oxo-3-p-tolyl-3,4-dihydro-quinazolin-2-yl)-4-phenyl-thiazol-2-yl]-carbamic acid methyl ester]
23 | 192 to 193 | CNc1nc(-c2ccccc2)c(-c2nc3ccccc3c(=O)n2-c2ccc(C)cc2)s1 [Example 195, 2-(2-Methylamino-4-phenyl-thiazol-5-yl)-3-p-tolyl-3H-quinazolin-4-one]
24 | > 275 | Cc1ccc(-n2c(-c3sc(NC(=O)c4ccccc4)nc3-c3ccccc3)nc3ccccc3c2=O)cc1 [Example 197, N-[5-(4-Oxo-3-p-tolyl-3,4-dihydro-quinazolin-2-yl)-4-phenyl-thiazole-2-yl]benzamide]
25 | 169 to 170 | COc1ccccc1-n1c(-c2sc(Nc3ccccc3)nc2C)nc2ccccc2c1=O [Example 202, 2-(4-Methyl-2-phenylamino-thiazol-5-yl)-3-(2-methoxyphenyl)-3H-quinazolin-4-one]
26 | 228 to 230 | COC(=O)Nc1nc(-c2ccccc2)c(-c2nc3ccccc3c(=O)n2-c2ccccc2OC)s1 [Example 204, [5-(4-Oxo-3-(2-methoxyphenyl)-3,4-dihydro-quinazolin-2-yl)-4-phenyl-thiazol-2-yl]-carbamic acid methyl ester]
27 | > 275 | COc1cccc(-n2c(-c3sc(Nc4ccccc4)nc3C)nc3ccccc3c2=O)c1 [Example 210, 2-(4-Methyl-2-phenylamino-thiazol-5-yl)-3-(3-methoxyphenyl)-3H-quinazolin-4-one]
28 | 204 to 205 | CCOC(=O)Nc1nc(-c2ccccc2)c(-c2nc3ccccc3c(=O)n2-c2cccc(OC)c2)s1 [Example 212, [5-(4-Oxo-3-(3-methoxyphenyl)-3,4-dihydro-quinazolin-2-yl)-4-phenyl-thiazol-2-yl]-carbamic acid ethyl ester]
29 | 265 to 266 | COc1ccc(-n2c(-c3sc(Nc4ccccc4)nc3C)nc3ccccc3c2=O)cc1 [Example 216, 2-(4-Methyl-2-phenylamino-thiazol-5-yl)-3-(4-methoxyphenyl)-3H-quinazolin-4-one]
30 | 272 to 274 | COC(=O)Nc1nc(-c2ccccc2)c(-c2nc3ccccc3c(=O)n2-c2ccc(OC)cc2)s1 [Example 219, [5-(4-Oxo-3-(4-methoxyphenyl)-3,4-dihydro-quinazolin-2-yl)-4-phenyl-thiazol-2-yl]-carbamic acid methyl ester]
31 | 235 to 236 | CNc1nc(-c2ccccc2)c(-c2nc3ccccc3c(=O)n2-c2ccc(OC)cc2)s1 [Example 220, 2-(2-Methylamino-4-phenyl-thiazol-5-yl)-3-(4-methoxyphenyl)-3H-quinazolin-4-one]
32 | > 275 | Cc1ccc(C(=O)Nc2nc(-c3ccccc3)c(-c3nc4ccccc4c(=O)n3-c3ccccc3Cl)s2)cc1 [Example 236, 4-Methyl-N-[5-(4-oxo-3-(2-chloro-phenyl)-3,4-dihydroquinazolin-2-yl)-4-phenyl-thiazol-2-yl]-benzamide]
33 | 224 to 225 | CNc1nc(-c2ccccc2)c(-c2nc3ccccc3c(=O)n2-c2ccccc2)s1 [Example 320, 2-(2-Methylamino-4-phenyl-thiazole-5-yl)-3-phenyl-3H-quinazolin-4-one]
